Data reported in ChEMBL document CHEMBL1201862, “PubChem BioAssay data set” (2004).
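1) Cells in 96-well plates. 2) Compound, 48 h, 5 concentrations. 3) Linear interpolation between surrounding doses. 4) Unreached endpoint = highest concentration. Here, GI50 denotes the concentration required for 50% inhibition of growth.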 Calls of active or inactive are those of the source. No stated cut-off is given here; in the data, active = GI50 up to about 1.1 µM and inactive = higher.

Legend:
Test in all cases: inhibition of tumour cell growth, NCI panel, 48 h
UO-31 = test system: UO-31
SNB-75 = test system: SNB-75
BT-549 = test system: BT-549
SNB-19 = test system: SNB-19
RPMI-8226 = test system: RPMI-8226
CCRF-CEM = test system: CCRF-CEM
NCI/ADR-RES = test system: NCI/ADR-RES
MDA-N = test system: MDA-N
NCI-H226 = test system: NCI-H226
HCT-15 = test system: HCT-15
A498 = test system: A498
MDA-MB-231 = test system: MDA-MB-231
OVCAR-8 = test system: OVCAR-8
SF-295 = test system: SF-295
HOP-62 = test system: HOP-62
A549 = test system: A549
SK-MEL-2 = test system: SK-MEL-2
LOX IMVI = test system: LOX IMVI
NCI-H522 = test system: NCI-H522
SK-OV-3 = test system: SK-OV-3

SMILES | GI50 (UO-31) | GI50 (SNB-75) | GI50 (BT-549) | GI50 (SNB-19) | GI50 (RPMI-8226) | GI50 (CCRF-CEM) | GI50 (NCI/ADR-RES) | GI50 (MDA-N) | GI50 (NCI-H226) | GI50 (HCT-15) [µM] | GI50 (A498) | GI50 (MDA-MB-231) | GI50 (OVCAR-8) | GI50 (SF-295) | GI50 (HOP-62) | GI50 (A549) | GI50 (SK-MEL-2) | GI50 (LOX IMVI) | GI50 (NCI-H522) | GI50 (SK-OV-3)
CCOC(=O)c1c(NS(=O)(=O)c2ccc(C)cc2)sc2c1CCCC2 | 21.1 µM (inactive) | 27.1 µM (inactive) | 31.7 µM (inactive) | 35.1 µM (inactive) | 10.2 µM (inactive) | 12.1 µM (inactive) | 27 µM (inactive) | 42.7 µM (inactive) | 40.8 µM (inactive) | 15.9 | 36.1 µM (inactive) | 22.5 µM (inactive) | 35.7 µM (inactive) | 28 µM (inactive) | 23.2 µM (inactive) | 24.5 µM (inactive) | 17.3 µM (inactive) |  |  | 
COC1CCON1C(=O)c1ccccc1 (stereo unspecified) | > 10 µM (inactive) | > 10 µM (inactive) | > 10 µM (inactive) | > 10 µM (inactive) | > 10 µM (inactive) | > 10 µM (inactive) | > 10 µM (inactive) | > 10 µM (inactive) | > 10 µM (inactive) | > 10 |  | > 10 µM (inactive) | > 10 µM (inactive) | > 10 µM (inactive) | > 10 µM (inactive) | > 10 µM (inactive) | > 10 µM (inactive) | > 10 µM (inactive) | > 10 µM (inactive) | > 10 µM (inactive)
CCOc1cc(C=O)c2c(ccc3ccc(OC)c(OC)c32)c1OC | 66.8 µM (inactive) | 36.3 µM (inactive) | 32.4 µM (inactive) | > 100 µM (inactive) | 15.5 µM (inactive) | 28.2 µM (inactive) | 17.5 µM (inactive) | 57 µM (inactive) | 67.1 µM (inactive) | 49.7 |  | > 100 µM (inactive) | 50 µM (inactive) | 43.8 µM (inactive) |  | 46.1 µM (inactive) | 36.8 µM (inactive) | 32.4 µM (inactive) | 38.5 µM (inactive) | > 100 µM (inactive)
N#Cc1nn(C(N)=O)c(N)c1C#N | > 100 µM (inactive) | > 100 µM (inactive) | > 100 µM (inactive) | > 100 µM (inactive) |  | > 100 µM (inactive) | > 100 µM (inactive) | > 100 µM (inactive) | > 100 µM (inactive) | > 100 | > 100 µM (inactive) | > 100 µM (inactive) | > 100 µM (inactive) | > 100 µM (inactive) | > 100 µM (inactive) | > 100 µM (inactive) | > 100 µM (inactive) |  | > 100 µM (inactive) | > 100 µM (inactive)
CCC(=O)/C(=C\I)c1ccccc1 | 2.05 µM (inactive) | 1.52 µM (inactive) | 1.79 µM (inactive) | 15.3 µM (inactive) | 3.33 µM (inactive) | 2.74 µM (inactive) | 12.4 µM (inactive) | 2.85 µM (inactive) | 23.4 µM (inactive) | 1.8 | 18.1 µM (inactive) | 1.75 µM (inactive) | 2 µM (inactive) | 18.5 µM (inactive) | 21 µM (inactive) | 20.9 µM (inactive) | 2.1 µM (inactive) | 1.27 µM (inactive) |  | 16.6 µM (inactive)
COc1nc(=O)n(C2CC(F)C(CO)O2)cc1C (stereo unspecified) | > 100 µM (inactive) |  | > 100 µM (inactive) | > 100 µM (inactive) | > 100 µM (inactive) | > 100 µM (inactive) | > 100 µM (inactive) | > 100 µM (inactive) | > 100 µM (inactive) | > 100 |  | > 100 µM (inactive) | > 100 µM (inactive) | > 100 µM (inactive) | > 100 µM (inactive) | > 100 µM (inactive) | > 10 µM (inactive) | > 100 µM (inactive) | > 100 µM (inactive) | 
CC(=O)OCC1OC(OC2CC3C(C)(C)C(=O)CC[C@]3(C)C3CC[C@]45C[C@]4(CCC5[C@@H](C)CC(O)C(O)C(C)(C)O)[C@]23C)C(O)C(O)C1O (stereo partly specified) | 18.2 µM (inactive) | 5.35 µM (inactive) | 12.9 µM (inactive) | 11.3 µM (inactive) | 3.56 µM (inactive) | 4.13 µM (inactive) | 18.3 µM (inactive) | 10.7 µM (inactive) | 16.5 µM (inactive) | 17.6 |  | 6.44 µM (inactive) | 13.5 µM (inactive) | 14.1 µM (inactive) | 19.3 µM (inactive) | 17.3 µM (inactive) | 4.93 µM (inactive) | 3.72 µM (inactive) | 10.6 µM (inactive) | 15.5 µM (inactive)
CC(=O)Nc1ncc(Sc2ccccc2C(=O)O)s1 | > 100 µM (inactive) | > 100 µM (inactive) | > 100 µM (inactive) | > 100 µM (inactive) | > 100 µM (inactive) | > 100 µM (inactive) | > 100 µM (inactive) | > 100 µM (inactive) | > 100 µM (inactive) | > 100 | > 100 µM (inactive) | > 100 µM (inactive) | > 100 µM (inactive) | > 100 µM (inactive) | > 100 µM (inactive) | > 100 µM (inactive) | > 100 µM (inactive) | > 100 µM (inactive) |  | 
COc1ccc(/C=C2\N=C(N3CCCC(CO)C3)NC2=O)cc1 (stereo unspecified) | > 100 µM (inactive) | > 100 µM (inactive) | > 100 µM (inactive) | > 100 µM (inactive) | > 100 µM (inactive) | > 100 µM (inactive) | > 100 µM (inactive) | > 100 µM (inactive) | > 100 µM (inactive) | > 100 |  | > 100 µM (inactive) | > 100 µM (inactive) | > 100 µM (inactive) | > 100 µM (inactive) | > 100 µM (inactive) | > 100 µM (inactive) | > 100 µM (inactive) | > 100 µM (inactive) | > 100 µM (inactive)
O=c1oc2ccc(Cl)cc2cc1C1=CSC2=NCCN12 | 20.7 µM (inactive) | 44.5 µM (inactive) | 19.7 µM (inactive) | 25 µM (inactive) | 20.4 µM (inactive) | 20.4 µM (inactive) | 44.4 µM (inactive) | 20.8 µM (inactive) |  | 18.9 |  | 20.4 µM (inactive) | 19.9 µM (inactive) | 23.3 µM (inactive) | 17.4 µM (inactive) | 40.7 µM (inactive) | 23.3 µM (inactive) | 18.9 µM (inactive) | 18.7 µM (inactive) | 38.1 µM (inactive)
Nc1cc2nc(-c3ccccc3)cn2cn1 | 32.4 µM (inactive) | 40.2 µM (inactive) | > 100 µM (inactive) | > 100 µM (inactive) | 65 µM (inactive) | 86.5 µM (inactive) | > 100 µM (inactive) | > 100 µM (inactive) | > 100 µM (inactive) | > 100 | 27.9 µM (inactive) | > 100 µM (inactive) | > 100 µM (inactive) | > 100 µM (inactive) | > 100 µM (inactive) | > 100 µM (inactive) | > 100 µM (inactive) | 84.5 µM (inactive) |  | > 100 µM (inactive)
